Data on 22 compounds can be found in US8273774B2, “Phenoxypyridinylamide compounds” (AstraZeneca AB, priority 2008, dated 2012).

Structures can show the parent of a compound that is named as a salt.

The target in this assay is recombinant Human Phosphodiesterase B2 (PDE4B2) (Homo sapiens, UniProt Q07343). Kind of assay: Human Phosphodiesterase B2 Radiometric Assay. The format is biochemical. Conditions: 0.1 μg/mL recombinant PDE4B2; preincubated at 30 C for 30 min; [3H]cyclic AMP 8 nM, stopped after 20 min; yttrium silicate SPA beads; read-out: PDE4B2 pIC50 (converted). An outline of the steps: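 SPA read-out: product 5′AMP binds yttrium silicate beads (added with 18 mM ZnSO4 after 20 min) in preference to [3H]cAMP substrate, given at 8 nM final.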
Chain of recombinant Human Phosphodiesterase B2 (PDE4B2) (Q07343 1-564 isoform Q07343-2): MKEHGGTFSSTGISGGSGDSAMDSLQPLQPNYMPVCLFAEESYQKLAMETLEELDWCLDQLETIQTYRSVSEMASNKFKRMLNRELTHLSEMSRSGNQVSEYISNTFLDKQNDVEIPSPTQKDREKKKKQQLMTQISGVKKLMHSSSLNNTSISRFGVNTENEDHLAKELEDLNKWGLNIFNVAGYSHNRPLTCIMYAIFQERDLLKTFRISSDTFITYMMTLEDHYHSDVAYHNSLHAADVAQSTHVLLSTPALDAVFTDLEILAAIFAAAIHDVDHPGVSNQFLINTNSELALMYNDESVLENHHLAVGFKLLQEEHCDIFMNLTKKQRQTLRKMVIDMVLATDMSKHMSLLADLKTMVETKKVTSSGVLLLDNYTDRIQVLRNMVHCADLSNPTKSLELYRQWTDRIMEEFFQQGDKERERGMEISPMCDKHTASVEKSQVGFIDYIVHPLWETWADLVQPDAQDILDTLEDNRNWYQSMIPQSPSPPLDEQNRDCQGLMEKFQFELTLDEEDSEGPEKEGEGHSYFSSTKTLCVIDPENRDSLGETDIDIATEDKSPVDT
As for `O=C(N[C@H]1CC[C@@H](NC(=O)c2cc(F)cnc2Oc2cccc(-c3ccc(CN4CCNCC4)cc3)c2)CC1)c1cc2n(n1)CCCC2` [Example 114, N-((1s,4s)-4-(5-fluoro-2-(4′-(piperazin-1-ylmethyl)biphenyl-3-yloxy)nicotinamido)cyclohexyl)-4,5,6,7-tetrahydropyrazolo[1,5-a]pyridine-2-carboxamide], the IC50 was 0.158 nM. In the case of `C[C@@H]1CN(Cc2cc(-c3cccc(Oc4ncc(F)cc4C(=O)N[C@H]4CC[C@@H](NC(=O)c5cnn6cccnc56)CC4)c3)ccc2O)C[C@H](C)N1` [Example 125, N-((1s,4s)-4-(2-(3′-(((3S,5R)-3,5-dimethylpiperazin-1-yl)methyl)-4′-hydroxybiphenyl-3-yloxy)-5-fluoronicotinamido)cyclohexyl)pyrazolo[1,5-a]pyrimidine-3-carboxamide] it was 0.0631 nM; in that of `Cc1csc(C(=O)N[C@H]2CC[C@@H](NC(=O)c3cc(F)cnc3Oc3cccc(-c4ccc(CN5C[C@@H](C)N[C@@H](C)C5)cc4CN4CCOCC4)c3)CC2)n1` [Example 144, N-((1s,4s)-4-(2-(4′-(((3S,5R)-3,5-dimethylpiperazin-1-yl)methyl)-2′-(morpholinomethyl)biphenyl-3-yloxy)-5-fluoronicotinamido)cyclohexyl)-4-methylthiazole-2-carboxamide], 0.0316 nM. With `Cc1cc(C(=O)N[C@H]2CC[C@@H](NC(=O)c3cc(F)cnc3Oc3cccc(-c4ccc(CCCN5CCCC5)cc4)c3)CC2)nn1C` [Example 79, N-((1s,4s)-4-(1,5-dimethyl-1H-pyrazole-3-carboxamido)cyclohexyl)-5-fluoro-2-(4′-(3-(pyrrolidin-1-yl)propyl)biphenyl-3-yloxy)nicotinamide], the IC50 was 0.0316 nM. With `Cc1cc(C(=O)N[C@H]2CC[C@@H](NC(=O)c3cc(F)cnc3Oc3cccc(-c4ccc(CCN5CCN(C(C)C)CC5)cc4)c3)CC2)nn1C` [Example 83, N-((1s,4s)-4-(1,5-dimethyl-1H-pyrazole-3-carboxamido)cyclohexyl)-5-fluoro-2-(4′-(2-(4-isopropylpiperazin-1-yl)ethyl)biphenyl-3-yloxy)nicotinamide] the figure was 0.0251 nM; with `CC(C)c1nc(C(=O)N[C@H]2CC[C@@H](NC(=O)c3cc(F)cnc3Oc3cccc(-c4ccc(O)c(CN5C[C@@H](C)N[C@@H](C)C5)c4)c3)CC2)cs1` [Example 90, N-((1s,4s)-4-(2-(3′-(((3S,5R)-3,5-dimethylpiperazin-1-yl)methyl)-4′-hydroxybiphenyl-3-yloxy)-5-fluoronicotinamido)cyclohexyl)-2-isopropylthiazole-4-carboxamide], 0.2 nM; with `Cc1cc(C(=O)N[C@H]2CC[C@@H](NC(=O)c3cc(F)cnc3Oc3cccc(-c4ccc(O)c(CN5CCN(C(C)C)CC5)c4)c3)CC2)nn1C` [Example 77, N-((1s,4s)-4-(1,5-dimethyl-1H-pyrazole-3-carboxamido)cyclohexyl)-5-fluoro-2-(4′-hydroxy-3′-((4-isopropylpiperazin-1-yl)methyl)biphenyl-3-yloxy)nicotinamide], 0.0631 nM. Consider `Cc1cc(C(=O)N[C@H]2CC[C@@H](NC(=O)c3cc(F)cnc3Oc3cccc(-c4ccc(CCCN5C[C@@H](C)N[C@@H](C)C5)cc4)c3)CC2)nn1C` [Example 81, N-((1s,4s)-4-(1,5-dimethyl-1H-pyrazole-3-carboxamido)cyclohexyl)-2-(4′-(3-((3S,5R)-3,5-dimethylpiperazin-1-yl)propyl)biphenyl-3-yloxy)-5-fluoronicotinamide], for which the IC50 was 0.0316 nM. Regarding `COCc1nc(C(=O)N[C@H]2CC[C@@H](NC(=O)c3cc(F)cnc3Oc3cccc(-c4ccc(O)cc4CN4CCOCC4)c3)CC2)cs1` [Example 63, N-((1s,4s)-4-(5-fluoro-2-(4′-hydroxy-2′-(morpholinomethyl)biphenyl-3-yloxy)nicotinamido)cyclohexyl)-2-(methoxymethyl)thiazole-4-carboxamide], the IC50 was 0.126 nM. For the compound `O=C(N[C@H]1CC[C@@H](NC(=O)c2cccc3cccnc23)CC1)c1cc(F)cnc1Oc1cccc(-c2ccc(CCCNCCCO)cc2)c1` [Example 161, N-((1s,4s)-4-(5-Fluoro-2-(4′-(3-(3-hydroxypropylamino)propyl)biphenyl-3-yloxy)nicotinamido)cyclohexyl)quinoline-8-carboxamide], the IC50 was 0.0126 nM. Consider `C[C@@H]1CN(Cc2ccc(-c3cccc(Oc4ncc(F)cc4C(=O)N[C@H]4CC[C@@H](NC(=O)c5ccc6ccccc6n5)CC4)c3)c(CN3CCOCC3)c2)C[C@H](C)N1` [Example 147, N-((1s,4s)-4-(2-(4′-(((3S,5R)-3,5-dimethylpiperazin-1-yl)methyl)-2′-(morpholinomethyl)biphenyl-3-yloxy)-5-fluoronicotinamido)cyclohexyl)quinoline-2-carboxamide], for which the IC50 was 0.0501 nM. With `Cc1cccc2nc(C(=O)N[C@H]3CC[C@@H](NC(=O)c4cc(F)cnc4Oc4cccc(-c5ccc(CN6C[C@@H](C)N[C@@H](C)C6)c(O)c5)c4)CC3)cn12` [Example 96, N-((1s,4s)-4-(2-(4′-(((3S,5R)-3,5-dimethylpiperazin-1-yl)methyl)-3′-hydroxybiphenyl-3-yloxy)-5-fluoronicotinamido)cyclohexyl)-5-methylimidazo[1,2-a]pyridine-2-carboxamide] the figure was 0.2 nM.

In the case of `Cc1nc(C(=O)N[C@H]2CC[C@@H](NC(=O)c3cc(F)cnc3Oc3cccc(-c4ccc(CCN5C[C@@H](C)N[C@@H](C)C5)cc4)c3)CC2)cs1` [Example 86, N-((1s,4s)-4-(2-(4′-(2-((3S,5R)-3,5-dimethylpiperazin-1-yl)ethyl)biphenyl-3-yloxy)-5-fluoronicotinamido)cyclohexyl)-2-methylthiazole-4-carboxamide], the IC50 was 0.0316 nM. For the compound `Cc1nc(C(=O)N[C@H]2CC[C@@H](NC(=O)c3cc(F)cnc3Oc3cccc(-c4ccc(O)c(CN5C[C@@H](C)N[C@@H](C)C5)c4)c3)CC2)cs1` [Example 68, N-((1s,4s)-4-(2-(3′-(((3R,5S)-3,5-dimethylpiperazin-1-yl)methyl)-4′-hydroxybiphenyl-3-yloxy)-5-fluoronicotinamido)cyclohexyl)-2-methylthiazole-4-carboxamide], the IC50 is 0.0251 nM. Turning to `Cc1nc(C(=O)N[C@H]2CC[C@@H](NC(=O)c3cc(F)cnc3Oc3cccc(-c4ccc(CN5C[C@@H](C)N[C@@H](C)C5)c(O)c4)c3)CC2)cs1` [Example 98, N-((1s,4s)-4-(2-(4′-(((3S,5R)-3,5-dimethylpiperazin-1-yl)methyl)-3′-hydroxybiphenyl-3-yloxy)-5-fluoronicotinamido)cyclohexyl)-2-methylthiazole-4-carboxamide], the IC50 is 0.1 nM. In the case of `C[C@@H]1CN(CCCc2ccc(-c3cccc(Oc4ncc(F)cc4C(=O)N[C@H]4CC[C@@H](NC(=O)c5cc6n(n5)CCCO6)CC4)c3)cc2)C[C@H](C)N1` [Example 168, N-((1s,4s)-4-(2-(4′-(3-((3S,5R)-3,5-Dimethylpiperazin-1-yl)propyl)biphenyl-3-yloxy)-5-fluoronicotinamido)cyclohexyl)-6,7-dihydro-5H-pyrazolo[5,1-b][1,3]oxazine-2-carboxamide] it was 0.0501 nM.

With `Cc1ccc(O)c(C(=O)N[C@H]2CC[C@@H](NC(=O)c3cc(F)cnc3Oc3cccc(-c4ccc(O)cc4CN4CCOCC4)c3)CC2)c1` [Example 28, 5-fluoro-2-(4′-hydroxy-2′-(morpholinomethyl)biphenyl-3-yloxy)-N-((1s,4s)-4-(2-hydroxy-5-methylbenzamido)cyclohexyl)nicotinamide], the IC50 was 0.0251 nM. In the case of `C[C@@H]1CN(Cc2ccc(-c3cccc(Oc4ncc(F)cc4C(=O)N[C@H]4CC[C@@H](NC(=O)c5cc6n(n5)CCCC6)CC4)c3)c(CN3CCSCC3)c2)C[C@H](C)N1` [Example 188, N-((1s,4s)-4-(2-(4′-(((3S,5R)-3,5-dimethylpiperazin-1-yl)methyl)-2′-(thiomorpholinomethyl)biphenyl-3-yloxy)-5-fluoronicotinamido)cyclohexyl)-4,5,6,7-tetrahydropyrazolo[1,5-a]pyridine-2-carboxamide] it was 0.02 nM; in that of `O=C(N[C@H]1CC[C@@H](NC(=O)c2cc(F)cnc2Oc2cccc(-c3ccc(O)cc3CN3CCSCC3)c2)CC1)c1cn2cc(F)ccc2n1` [Example 21, 6-fluoro-N-((1s,4s)-4-(5-fluoro-2-(4′-hydroxy-2′-(thiomorpholinomethyl)biphenyl-3-yloxy)nicotinamido)cyclohexyl)imidazo[1,2-a]pyridine-2-carboxamide], 0.0501 nM. `Cc1cc(CN[C@H]2CC[C@@H](NC(=O)c3cc(F)cnc3Oc3cccc(-c4ccc(O)cc4CN4CCOCC4)c3)CC2)nn1C` [Example 3, N-((1s,4s)-4-((1,5-dimethyl-1H-pyrazol-3-yl)methylamino)cyclohexyl)-5-fluoro-2-(4′-hydroxy-2′-(morpholinomethyl)biphenyl-3-yloxy)nicotinamide trifluoroacetate]: the IC50 is 1.26 nM.

With `Cc1cccc2nc(C(=O)N[C@H]3CC[C@@H](NC(=O)c4cc(F)cnc4Oc4cccc(-c5ccc(CN6C[C@@H](C)N[C@@H](C)C6)cc5CN5CCOCC5)c4)CC3)cn12` [Example 123, N-((1s,4s)-4-(2-(4′-(((3S,5R)-3,5-dimethylpiperazin-1-yl)methyl)-2′-(morpholinomethyl)biphenyl-3-yloxy)-5-fluoronicotinamido)cyclohexyl)-5-methylimidazo[1,2-a]pyridine-2-carboxamide], the IC50 was 0.0631 nM. In the case of `Cc1nc(C(=O)N[C@H]2CC[C@@H](NC(=O)c3cc(F)cnc3Oc3cccc(-c4ccc(CCCNCCCO)cc4)c3)CC2)cs1` [Example 136, N-((1s,4s)-4-(5-fluoro-2-(4′-(3-(3-hydroxypropylamino)propyl)biphenyl-3-yloxy)nicotinamido)cyclohexyl)-2-methylthiazole-4-carboxamide] it was 0.1 nM.
